Source: patent US20260027068A1, “METHODS OF ADM[…]-KETAMINE” (Perception Neuroscience, Inc., priority 2022, published 2026)

Tests used:
[1] = Phase 1 single ascending dose plasma pharmacokinetics of 40-minute IV infusion of R(−)-ketamine and its metabolites; conditions: for Tmax: all dose levels 5 mg to 150 mg; for AUC(0-inf) / Cmax / AUC(0-t): iv
Method: This was a Phase 1 randomized, placebo-controlled, double-blind, single dose study conducted at one center. […] The pharmacokinetic (PK) population was 36 subjects, with 12 additional subjects receiving placebo. […] Subjects were male or female healthy subjects, 18 to 65 years of age. […] Cohort 1 was dosed at 5 mg, followed by Cohort 2 at 15 mg, Cohort 3 at 30 mg, Cohort 4 at 60 mg, Cohort 5 at 100 mg, and Cohort 6 at 150 mg R(−)-ketamine. […] In addition to the safety and tolerability data, the study also evaluated the dose-related PK of each 40-minute IV infusion of R(−)-ketamine.
To evaluate the pharmacokinetics of R(−)-ketamine, blood was drawn from subjects for PK analysis at the following sampling times: pre-dose (−30 minutes); and from the start of infusion (5, 10, and 15 minutes [±1 minute], 30 minutes [±5 minutes], 40 minutes [immediately prior to infusion completion], 1, 1.5, 2, and 3 hours [±5 minutes], 4 and 8 hours [±10 minutes], 12 and 24 hours [±15 minutes]).
Plasma PK parameters of R(−)-ketamine and its metabolites (norketamine, 6-hydroxynorketamine, and dehydronorketamine) evaluated on include the following: • Maximum plasma concentration (Cmax), • Time to Cmax (Tmax), • Area under the plasma concentration curve (AUC0-t, AUC0-∞) • Elimination rate constant (λz), • Half-live (t½) • Clearance (CL, P R(−)-ketamine only), • Volume of distribution (Vz, R(−)-ketamine only), and • Metabolite to parent ratios (area under curve [AUC] and Cmax).
The dose proportionality was assessed both visually and statistically using calculated Cmax and AUC values. […] Continuous variables: Descriptive statistics included the number of non-missing values (n), arithmetic mean, standard deviation (SD), median, minimum, and maximum values. […] For PK concentration data, the number of non-missing values, number of below limit of quantification (BLQ) values, arithmetic mean, SD, median, minimum, maximum, coefficient of variation (CV %), geometric mean, and geometric CV (geo CV %) values are presented. For PK parameter data, the number of non-missing values, arithmetic mean, SD, median, minimum, maximum, CV %, geometric mean, and geometric CV (geo CV %) values are presented.
Intravenous administration of allocated blinded study drug (Morning, Day 1) was infused over 40 minutes. Blood collection for plasma PK analysis occurred at infusion 5, 10, 15, 30, 40, 60, and 90 minutes, and 2, 3, 4, 8, and 12 hours after the start of infusion.
Plasma concentrations of R(−)-ketamine and its metabolites norketamine, 6-hydroxynorketamine, and dehydronorketamine were determined using a suitable validated analytical method with a lower limit of quantitation (LOQ) of 1 ng/mL.
The linearity of the increase in exposure with respect to the increasing dose administered was evaluated for Cmax and AUC for R(−)-ketamine and its metabolites (norketamine, 6-hydroxynorketamine and dehydronorketamine). […] The power model was used to estimate the slope parameter and the 90% confidence intervals for the slope.

rats = assay: Anhedonic or negative affective side effects
[2] = tested on: phencyclidine site of the N-methyl-D-aspartate (NMDA) receptor; conditions: phencyclidine site; cited from earlier work
TRD patients = conditions: 15 mg; cited from earlier work
[3] = in vivo; cited from earlier work
[4] = 5 mg R(−)-ketamine IV over 40 minutes, plasma
[5] = 150 mg R(−)-ketamine IV over 40 minutes, plasma

NC1(c2ccccc2Cl)CCCC(O)C1=O (stereo not shown) [6-hydroxynorketamine]
Arithmetic mean AUC0-24h ([1]; 5 mg R(−)-ketamine IV): 110 ng·h/mL
Arithmetic mean AUC0-t ([1]; 5 mg R(−)-ketamine IV): 110 ng·h/mL
Arithmetic mean Cmax [1, 4]: 5.98 ng/mL
Arithmetic mean AUC0-24h ([1]; 150 mg R(−)-ketamine IV): 3000 ng·h/mL
Arithmetic mean AUC0-t ([1]; 150 mg R(−)-ketamine IV): 3000 ng·h/mL
Arithmetic mean Cmax [1, 5]: 165 ng/mL
Metabolite/R(−)-ketamine ratio based on AUC0-24h, arithmetic mean ([1]; across 5 mg to 150 mg cohorts): 2.22
Metabolite/R(−)-ketamine ratio based on AUC0-t, arithmetic mean ([1]; across 5 mg to 150 mg cohorts): 2.22

N[C@@]1(c2ccccc2Cl)CCC[C@@H](O)C1=O [R-hydroxynorketamine]
Anhedonic or negative affective side effects (rats): no anhedonic or negative affective side effects

CN[C@]1(c2ccccc2Cl)CCCCC1=O [S(+)-ketamine, reference compound]
Binding affinity relative to R(−)-ketamine [2]: approximately 4 times
Antidepressant effect (TRD patients): robust antidepressant effect
Side effects (hyperlocomotion, prepulse inhibition deficit, drug dependence) [3]: induced side effects such as a hyperlocomotion, prepulse inhibition deficit, and drug dependence

NC1(c2ccccc2Cl)CCC=CC1=O (stereo not shown) [dehydronorketamine]
Arithmetic mean AUC0-24h ([1]; 5 mg R(−)-ketamine IV): 2.5 ng·h/mL
Arithmetic mean AUC0-t ([1]; 5 mg R(−)-ketamine IV): 1.37 ng·h/mL
Arithmetic mean Cmax [1, 4]: 0.198 ng/mL
Arithmetic mean AUC0-inf ([1]; 15 mg R(−)-ketamine IV): 16.3 ng·h/mL
Fold increase in AUC0-inf ([1]; 15 mg to 150 mg (10-fold increase in dose)): 35.3 fold
Arithmetic mean AUC0-24h ([1]; 150 mg R(−)-ketamine IV): 424 ng·h/mL
Arithmetic mean AUC0-inf ([1]; 150 mg R(−)-ketamine IV): 576 ng·h/mL
Arithmetic mean AUC0-t ([1]; 150 mg R(−)-ketamine IV): 424 ng·h/mL
Arithmetic mean Cmax [1, 5]: 35.6 ng/mL
Stability in the samples ([1]; PK samples): not stable in the samples

NC1(c2ccccc2Cl)CCCCC1=O (stereo not shown) [norketamine]
Metabolite/R(−)-ketamine ratio based on Cmax, arithmetic mean ([1]; across 5 mg to 150 mg cohorts): 0.448
half-life ([1]; both, human, plasma, intravenous): 6.7 to 8.05 h
Tmax ([1]; both, human, plasma, intravenous, Approximate median plasma Tmax): ~1 h
Tmax ([1]; both, human, plasma, intravenous, Plasma Tmax range (mixed units as printed)): 0.667 to 2 h
AUC(0-inf) ([1]; both, human, plasma, 5 mg): 79.1 ng·h/mL
Cmax ([1]; both, human, plasma, 5 mg): 11.4 ng/mL
AUC(0-t) ([1]; both, human, plasma, 5 mg, Arithmetic mean AUC0-24h, 5 mg R(−)-ketamine IV): 79.6 ng·h/mL
AUC(0-t) ([1]; both, human, plasma, 5 mg, Arithmetic mean AUC0-t, 5 mg R(−)-ketamine IV): 78 ng·h/mL
AUC(0-inf) ([1]; both, human, plasma, 150 mg): 3530 ng·h/mL
Cmax ([1]; both, human, plasma, 150 mg): 360 ng/mL
AUC(0-t) ([1]; both, human, plasma, 150 mg, Arithmetic mean AUC0-24h, 150 mg R(−)-ketamine IV): 3140 ng·h/mL
AUC(0-t) ([1]; both, human, plasma, 150 mg, Arithmetic mean AUC0-t, 150 mg R(−)-ketamine IV): 3140 ng·h/mL
